The text below walks through data of patent US7264795B2, “Sunscreen composition” (Merck Patent Gesellschaft, priority 2001, dated 2007).

Data set [1] can be described thus: Differential stripping of the stratum corneum (tape stripping with UV/VIS spectroscopy). It counts as in vitro ADME, porcine. From the text: The goal of this study was to determine and compare the distribution of OMC in the stratum corneum of two different formulations as applied to porcine skin, which serves as a model for in vivo human skin applications. The method used has been established (Weigmann H-J, Lademann J, Meffert H, Schaefer H, Sterry W: Determination of the horny layer profile by tape stripping in combination with optical spectroscopy in the visible range as a prerequisite to quantify percutaneous absorption. Skin Pharmacol Appl Skin Physiol, 12:34-45 (1999)) and is described below. This method is based on conventional stripping procedures combined with UV/VIS spectroscopy to determine both the substance, to be analyzed, and, in parallel, the weight of the comeocytes. This since it is possible to obtain the complete stratum corneum with this stripping procedure, the strips thus can be shown as a horny layer profile.
Porcine ear skin is used due to its availability and well-known similarity to human skin. […] Two formulations are applied to an area of 20 cm^2 with a concentration of 2 mg/cm^2 (200 μg OMC/cm^2) and exposed for one hour. […] Afterwards, topical application and stripping was carried out using a standard procedure (The emulsion is applied with a syringe and evenly distributed with a gloved finger. After pressure application, all strips were removed from the marked area). The stripping is repeated as long as the spectral photometer has a transmission of 99.8% compared to the original tape strip as reference.
After evaluation of the amount of stratum corneum photometrically at 900 nm, the strips are extracted with methanol, centrifuged and decanted. Amounts of OMC concentrations are calculated from the ratio peak area of the OMC to an internal OMC calibration curve. The detection limit for OMC is found to be 1 μg/ml±5%. The experiments are carried out in duplicate.
Non-particulate substances lying in the furrows are distributed evenly due to the applied pressure—this releases the substances from the furrows, while particulate substances often remain. […]

Data set [2] is described as follows: Comparative release through an inert lipophilic membrane (Franz diffusion cell). It counts as in vitro ADME. The note with it: after 6 hours, finite dose 5 mg/cm^2 (572 μg OMC/cell). An excerpt:
The goal of this study is to determine and compare the release of OMC from two different formulations through an inert lipophilic membrane which serves as a model (Jiang R, Benson H A E, Cross S E, Roberts M S. In vitro human epidermal and polyethylene membrane penetration and retention of sunscreen benzophenone-3 from a range of solvents. Pharm. Res., 15: 1863-1886 (1998)) for in vitro human skin applications. (Jiang R, Robert M S, Prankerd R J, Benson H A E. Percutaneous absorption of sunscreen agents from liquid paraffin: self-association of octyl salicylate and effects on skin flux. J. Pharm. Sci., 86: 791-796 (1997); Shah et al: In vitro release from corticosteorid ointments. J. Pham. Sci., 84(9): 1139-1140 (1995);).
Two formulations are prepared, one with free, the other with encapsulated OMC. Both contained the same amount of OMC (see Table 3).
Tuffryn® membranes (200 nm in pore size) are soaked for 30 minutes in isopropyl myristate and blotted dry with tissue paper prior to use. […]
Analysis is by HPLC, OMC concentrations are calculated from the ratio peak area of the OMC to an internal standard and calibration curve.

Data set [3] in a line: Epidermal uptake of UV filters by human epidermis (Franz diffusion cell). It counts as in vitro ADME. As to the method:
The goal of this study is to determine and compare both the release of OMC from two different formulations through human epidermal membranes and the epidermal uptake of OMC.
Human female abdominal skin is used to heat-separate the epidermis from the dermis. The epidermal membranes thus obtained are mounted onto a Franz diffusion cell. The receptor cell contains PBS and 4% (w/v) bovine serum albumin, resulting in a pH of 7.4. The temperature is set to 35° C. Each of the two formulations is applied to 3 cells, non-occluded, with a finite dose concentration of 5 mg/cm^2 (572 μg OMC/cell). […] The duration of examination is 6 hours, 200 μl of the receptor phase is removed at specific points of time and analyzed by HPLC. To analyze the epidermal uptake, the remaining formulation is wiped from the surface of the epidermis with alcohol-soaked tissue and the skin is stripped once with adhesive tape, which is then discarded. A circular punch is used to remove a constant area of epidermis exposed to the formulations. After extraction, OMC concentrations are analyzed by HPLC.

Consider `CCCCC(CC)COC(=O)C=Cc1ccc(OC)cc1` (centres unmarked) [Free OMC, octyl methoxycinnamate], for which the “Share of the stratum corneum (SC) down to which OMC is found” value in data set [1] (10% OMC formulation, 2 mg/cm^2, exposed one hour, 100% SC = 20 μm) was 75 % of the SC. In data set [1] (10% OMC formulation, 2 mg/cm^2, exposed one hour, horny layer about 20 μm), the “Maximum depth in the SC where OMC can be detected” value is no more than 15 μm. Moreover, the “OMC amount in the deepest strip” value in data set [1] (strip at 15 μm depth (75% of the SC)) worked out at 1 μg/cm^2. Further, the “OMC reaching the receptor cell as share of the applied amount” value in data set [2] was 12.5%. The “OMC reaching the receptor cell” value in data set [2] (8.8% OMC, n=3) turned out to be 72 µg. Moreover, in data set [3] (6 hours, finite dose 5 mg/cm^2 (572 μg OMC/cell), 8.8% OMC), the “UV filter penetrating the epidermis into the receptor phase” value is “no significant amount of UV filter penetrating the epidermis”. Moreover, in data set [3] (after 6 hours of exposure, finite dose 5 mg/cm^2, 8.8% OMC), the “Epidermal uptake of OMC per mg of epidermal tissue” value came out at 3.3 μg/mg tissue. For the same compound, the “Epidermal absorption compared to Eusolex UV-Pearls” value in data set [3] (heat-separated human epidermis, 6 hours) is recorded as 3 fold.
